{
  "source": "ChEMBL document CHEMBL3853264",
  "about": "(Medchemcomm, 2016)",
  "key": {"[1]": {"experiment": "Intrinsic clearance in human liver microsomes", "format": "ADME", "settings": "read-out: CLH"}, "[2]": {"experiment": "Octanol-water partition co-efficient, log D of the compound by shake flask method", "format": "physicochemical"}, "[3]": {"biological_target": "T1, Solute carrier family 22 member 12 (Homo sapiens, UniProt Q96S37)", "T1 sequence (Q96S37 whole entry)": "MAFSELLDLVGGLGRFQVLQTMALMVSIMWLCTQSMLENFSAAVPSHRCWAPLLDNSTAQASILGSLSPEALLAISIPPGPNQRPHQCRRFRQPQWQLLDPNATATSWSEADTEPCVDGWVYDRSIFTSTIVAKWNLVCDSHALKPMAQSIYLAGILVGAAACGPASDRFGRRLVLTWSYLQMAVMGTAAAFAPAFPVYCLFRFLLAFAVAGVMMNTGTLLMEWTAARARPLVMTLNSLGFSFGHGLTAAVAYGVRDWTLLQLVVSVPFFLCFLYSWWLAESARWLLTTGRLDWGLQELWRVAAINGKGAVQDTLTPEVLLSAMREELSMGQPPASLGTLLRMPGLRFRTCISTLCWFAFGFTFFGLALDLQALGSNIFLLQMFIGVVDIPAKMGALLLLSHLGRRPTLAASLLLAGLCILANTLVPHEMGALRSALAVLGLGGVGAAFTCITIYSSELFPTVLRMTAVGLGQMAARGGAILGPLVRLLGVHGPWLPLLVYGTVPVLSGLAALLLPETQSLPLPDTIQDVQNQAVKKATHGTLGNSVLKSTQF", "experiment": "Inhibition of URAT1 (unknown origin)"}, "[4]": {"biological_target": "T1, Solute carrier family 22 member 12", "experiment": "Inhibition of human C-terminal eGFP-tagged URAT1 long isoform expressed in CHO cells assessed as decrease in [14C]-uric acid uptake preincubated for 15 mins followed by [14C]-uric acid addition and incubated in dark for 3 hrs by scintillation counting method", "format": "cell-based"}},
  "data": [
    {"smiles": "N#Cc1cc(Oc2ccc(S(=O)(=O)Nc3ccc(F)cn3)cc2C#N)ccc1F", "values": [
      {"measurement": "microsomal CLint", "setting": "[1]", "value": 83, "unit": "µL/min/mg"},
      {"measurement": "logD", "setting": "[2]", "value": 1.5}
    ]},
    {"smiles": "CC(C)(Oc1ccc(C(=O)c2ccc(Cl)cc2)cc1)C(=O)O", "note": "[FENOFIBRIC ACID]", "values": [
      {"measurement": "IC50", "setting": "[3]", "value": 11, "unit": "µM"}
    ]},
    {"smiles": "N#Cc1ccc(Oc2ccc(S(=O)(=O)Nc3ccc(F)cn3)cc2F)cc1F", "values": [
      {"measurement": "IC50", "setting": "[4]", "value": 0.382, "unit": "µM"}
    ]}
  ]
}
